Assay results: US7572803B2 (The Christus Stehlin Foundation for Cancer Research, priority 2007, dated 2009)
Values joined by “and” are separate entries in the source; they are usually repeats but may differ in a detail not shown here. Equal values may be shown once.

Legend:
[1] = Pharmacokinetics for CPT in human plasma (lactone ring intact); format: in vitro ADME; conditions: read-out: half-life time of the drug with the lactone ring intact
[2] = Determination of PK parameters after oral administration to nude mice; format: in vivo
Method: The determination of PK parameters of crystalline CZ48 hydrate. Pharmacokinetic profile of crystalline camptothecin-20-O-propionate hydrate with a single dose of 2000 mg/kg was recorded following an oral administration to nude mice. […] Camptothecin-20-O-acetate, an analogue of CZ48 which was not a crystalline hydrate, was used as an internal standard for determining all PK parameters of the CZ48 hydrate. A 100 μL plasma from the mouse treated with crystalline CZ48 hydrate at dose of 2000 mg/kg was transferred into a 2-mL test-tube, and then 100 μL of internal-standard working solution (400 ng/mL) was also added to the tube. To the mixture, were also added 200 μL of 1% acetic acid solution and 1 mL ethyl ether. After vortex-mixing for 10 s, the mixture was incubated at room temperature on a shaker for 10 min, and then centrifuged at 10,000×g for 15 min. The upper layer obtained from the centrifugation was transferred into a clean tube and evaporated to dryness using an evaporator at 40° C. under a stream of nitrogen. The residue was reconstituted in 200 μL of water/acetonitrite (50/50, v/v) solvent system, and a 20-μL portion of the aliquot was injected into HPLC system for analysis. For the study, A 100 μL blank plasma from untreated mouse was also processed in the same manner as the treated.

human tumor xenografts = conditions: in mice, against human tumor xenografts; cited from earlier work
MYE DSRCT line = assay: Effective dose, MYE xenograft in nude mice; format: in vivo, human; conditions: oral, dose giving positive response
Method: (§1) In vivo anti-tumor activity determination. All the animal experiments were performed on nude Swiss mice of the NIH, high-fertility strain. They were bred and raised in laboratory under strict pathogen-free conditions. For anti-tumor activity determination, a tumor xenograft growing in a nude mouse, approximately 1 cm^3 in size, was surgically removed under sterile conditions, finely minced with iridectomy scissors, and suspended in cell culture medium at the ratio 1:10, v/v. One half of 1 mL of this suspension, containing about 50 mg of wet-weight tumor mince was subcutaneously inoculated on the upper half of the dorsal thorax of the mouse. Groups of four or five animals were used. Hydrated crystalline CZ48 was finely suspended in cottonseed oil and then injected into the stomach cavity of the mouse through the anterior abdominal wall using a 26 gauge needle. The weekly schedule used for oral administration of hydrated crystalline CZ48 was once a day for 7 days, or five days on and two days off. This schedule was employed throughout all the animal experiments. Treatment was initiated when the tumor had reached a volume of about 200 mm^3, i.e., well-vascularized, measurable, and growing exponentially. Tumors growing in animals were checked and measured with a caliper once a week. The effective doses were established when a positive response in mouse was reached.

[3] = test system: MiaPaCa2 pancreas tumor line; assay: Effective dose, MiaPaCa2 xenograft in nude mice; format: in vivo, human; conditions: oral, dose giving positive response
Method: as §1

FOSS melanoma line = assay: Effective dose, FOSS xenograft in nude mice; format: in vivo, human; conditions: oral, dose giving positive response
Method: as §1

[4] = test system: ASPC1 pancreas tumor line; assay: Effective dose, ASPC1 xenograft in nude mice; format: in vivo, human; conditions: oral, dose giving positive response
Method: as §1

human DSRCT line = assay: Anti-tumor activity, DSRCT xenografts in nude mice; format: in vivo; conditions: oral
From the text: (§2) In vivo anti-tumor activity determination. The human tumors used in the experiments discussed herein included 1 bladder line, 3 breast lines, 4 colon lines, 1 DSRCT line, 1 kidney line, 2 melanoma lines, 2 lung lines, 7 pancreatic lines, and 1 prostate line. The hydrated crystalline CZ48 drug was finely suspended in cottonseed oil and stored in a refrigerator for using. The suspension was orally administered to the mice bearing human tumors once a day continuously for 5 days on and 2 days off or once a day for seven days for the whole treatment period. The treatment period for the various tumor lines varied, ranging from two weeks to one year. […] With the continuous schedule (daily treatment), one of those two negatively responded pancreatic tumor lines under the 5/2 schedule achieved the positive response.
(§3) In vivo anti-tumor activity determination. All the animal experiments were performed on nude Swiss mice of the NIH, high-fertility strain. They were bred and raised in laboratory under strict pathogen-free conditions. For anti-tumor activity determination, a tumor xenograft growing in a nude mouse, approximately 1 cm^3 in size, was surgically removed under sterile conditions, finely minced with iridectomy scissors, and suspended in cell culture medium at the ratio 1:10, v/v. […] Tumors growing in animals were checked and measured with a caliper once a week. […]

human Bladder tumor line = assay: Anti-tumor activity, bladder tumor xenografts in nude mice; format: in vivo; conditions: oral
From the text: as §2, §3

human Breast tumor lines = assay: Anti-tumor activity, breast tumor xenografts in nude mice; format: in vivo; conditions: oral
From the text: as §2, §3

McC colon tumor line = assay: Effective dose, McC xenograft in nude mice; format: in vivo, human; conditions: oral, dose giving positive response
Method: as §1

CAK-kidney = assay: Effective dose, CAK xenograft in nude mice; format: in vivo, human; conditions: oral, dose giving positive response
Method: as §1

SPA lung tumor line = assay: Effective dose, SPA xenograft in nude mice; format: in vivo, human; conditions: oral, dose giving positive response
Method: as §1

SQU colon tumor line = assay: Effective dose, SQU xenograft in nude mice; format: in vivo, human; conditions: oral, dose giving positive response
Method: as §1

MUR breast tumor line = assay: Effective dose, MUR xenograft in nude mice; format: in vivo, human; conditions: oral, dose giving positive response
Method: as §1

human xenografts = assay: In vivo anti-tumor activity against human tumor xenografts in nude mice (all lines); conditions: oral, cottonseed oil suspension, 5 days-on and 2 days-off schedule
From the text: as §2, §3

CLO-breast carcinoma = assay: Effective dose, CLO xenograft in nude mice; format: in vivo, human; conditions: oral
Method: as §1

[5] = test system: human Pancreas tumor lines; assay: Anti-tumor activity, pancreatic tumor xenografts in nude mice; format: in vivo; conditions: oral
From the text: as §2
as §1, with “Treatment was initiated when the tumor had reached a volume of about 200 mm^3, i.e., well-vascularized, measurable, and growing exponentially.” left out, “The effective doses were established when a positive response in mouse was reached.” left out

LIE pancreas tumor line = assay: Effective dose, LIE xenograft in nude mice; format: in vivo, human; conditions: oral, dose giving positive response
Method: as §1

[6] = test system: HS766T pancreas tumor line; assay: Effective dose, HS766T xenograft in nude mice; format: in vivo, human; conditions: oral, dose giving positive response
Method: as §1

BOL bladder tumor line = assay: Effective dose, BOL xenograft in nude mice; format: in vivo, human; conditions: oral, dose giving positive response
Method: as §1

DOY lung tumor line = assay: Effective dose, DOY xenograft in nude mice; format: in vivo, human; conditions: oral, dose giving positive response
Method: as §1

SU86.86-pancreas = assay: Effective dose, SU86.86 xenograft in nude mice; format: in vivo, human; conditions: oral, dose giving positive response
Method: as §1

[7] = In vivo toxicity determination (body weight) in nude mice; conditions: continuously for 60 days
Method: In vivo toxicity determination. Groups of 4 or 5 animals of about the same age and having similar weights were chosen and treated with crystalline CZ48 hydrate orally at doses of 1500 mg/kg and 2000 mg/kg, respectively, continuously for 60 days. The 3 groups of mice chosen for the toxicity studies were healthy, of similar age and weights, and non-tumor-bearing. One group was used as control, and the other two groups were treated with the drug at two high-dose levels, 1500 mg/kg and 2000 mg/kg respectively, for about two months. The body weight changes in animals during the treatment were recorded for the treated group versus the untreated group beginning at day 0 and ending at the 60th day.
The body-weight loss was used as a parameter to measure the toxicity of the agent. Usually, body weight loss of 10% or more in mice during treatment is considered a sign of toxicity. Greater body-weight loss signifies greater toxicity.

[8] = In situ single-pass intestinal perfusion, percentage absorption in mouse; format: in vivo, nude mice
Method: The determination of percentage absorption of crystalline CZ48 hydrate in mouse. Absorption studies were also performed with crystalline camptothecin-20-O-propionate hydrate by using a mouse perfusion procedure on 4 nude mice. Prior to the in situ single-pass perfusion procedure, HBSS buffer (pH 7.4) consisting of 9.801 g/L HBSS powders, 0.372 g/L NaHCO3, 3.502 g/L glucose, 5.963 g/L HEPES, and 1.164 g/L NaCl was prepared and stored in a refrigerator. The perfusate for the procedure was prepared by mixing a certain amount of the drug, crystalline CZ48 hydrate, with an amount of HBSS buffer. The mixture was heated up to 37° C. (body temperature) right before use. A group of 4 mice with weights ranging from 25 to 30 grams and ages ranging from 9 to 11 months were anesthetized and placed onto a heating plate. The plate was maintained a constant temperature of 37° C. After a perfusion system was set ready with a mouse, two segments of the intestine (small intestine, IS, and colon) were simultaneously perfused with the freshly prepared perfusate. The pump was maintained at a constant flow-rate of 0.191 mL/min for the whole perfusion. Two perfusate samples were collected from each outlet (SI tract or colon) every 30 min. The concentrations of the drug in perfusate from the outlets were determined by HPLC analysis, and the corresponding percentage absorptions were calculated relative to the starting amount of the drug and shown in Table 5.

SW48 colon tumor line = assay: Effective dose, SW48 xenograft in nude mice; format: in vivo, human; conditions: oral, dose giving positive response
Method: as §1

WAR breast tumor line = assay: Effective dose, WAR xenograft in nude mice; format: in vivo, human; conditions: oral, dose giving positive response
Method: as §1

BRO melanoma line = assay: Effective dose, BRO xenograft in nude mice; format: in vivo, human; conditions: oral, dose giving positive response
Method: as §1

[9] = test system: PC3P62 prostate tumor line; assay: Effective dose, PC3P62 xenograft in nude mice; format: in vivo, human; conditions: oral, dose giving positive response
Method: as §1

HT29 colon tumor line = assay: Effective dose, HT29 xenograft in nude mice; format: in vivo, human; conditions: oral, dose giving positive response
Method: as §1

human Colon tumor lines = assay: Anti-tumor activity, colon tumor xenografts in nude mice; format: in vivo; conditions: oral
From the text: as §2, §3

PANC1-pancreas = assay: Effective dose, PANC1 xenograft in nude mice; format: in vivo, human; conditions: oral, dose giving positive response
Method: as §1

human Lung tumor lines = assay: Anti-tumor activity, lung tumor xenografts in nude mice; format: in vivo; conditions: oral
From the text: as §2, §3

human Melanoma lines = assay: Anti-tumor activity, melanoma xenografts in nude mice; format: in vivo; conditions: oral
From the text: as §2, §3

SMILES: CC[C@@]1(O)C(=O)OCc2c1cc1n(c2=O)Cc2cc3ccccc3nc2-1 [CPT, camptothecin, reference compound]
- half-life [1]: ~30 min
- Ke ([2]; mice, oral hydrated crystalline CZ48 2000 mg/kg, plasma, CPT = major metabolite): 0.40 ± 0.13 h⁻¹

SMILES: CC[C@@]1(O)C(=O)OCc2c1cc1n(c2=O)Cc2cc3c([N+](=O)[O-])cccc3nc2-1 [9-nitrocamptothecin]
- potency relative to CPT (human tumor xenografts): 2-3 times

SMILES: CCC(=O)O[C@]1(CC)C(=O)OCc2c1cc1n(c2=O)Cc2cc3ccccc3nc2-1 [hydrated crystalline CZ48, crystalline camptothecin-20-O-propionate hydrate]
- Effective dose (MYE DSRCT line): 100 mg/kg
- Effective dose [3]: 100 mg/kg
- Effective dose (FOSS melanoma line): 300 mg/kg
- Effective dose [4]: 300 mg/kg
- Response Positive (inhibition of growth bigger than 50%), lines responding/tested (human DSRCT line): 1/1
- Response Positive (inhibition of growth bigger than 50%), lines responding/tested (human Bladder tumor line): 1/1
- Response Positive (inhibition of growth bigger than 50%), lines responding/tested (human Breast tumor lines): 3/3
- Effective dose (McC colon tumor line): 300 mg/kg
- Effective dose (CAK-kidney): 1000 mg/kg
- Effective dose (SPA lung tumor line): 100 mg/kg
- Effective dose (SQU colon tumor line): 30 mg/kg
- Effective dose (MUR breast tumor line): 300 mg/kg
- tumor lines that achieved positive response (greater than 50% inhibition in tumor-growth inhibition) (human xenografts): 18 lines
- Effective dose (CLO-breast carcinoma; CLO (Breast), nude mice, dose giving positive response): 4 mg/kg
- tumor growth inhibition (CLO-breast carcinoma; CLO-breast carcinoma, dose 4 mg/kg): complete inhibition
- Response Negative (inhibition of growth smaller than 50%), lines/tested ([5]; Pancreas, nude mice): 1/7
- Response Positive (inhibition of growth bigger than 50%), lines responding/tested ([5]; Pancreas, nude mice): 6/7
- pancreatic tumor lines that failed to obtain the positive response ([5]; 5 days-on and 2 days-off schedule): 2 lines
- Effective dose (LIE pancreas tumor line): 100 mg/kg
- Effective dose [6]: 100 mg/kg
- Effective dose (BOL bladder tumor line): 200 mg/kg
- Effective dose (DOY lung tumor line): 15 mg/kg
- Effective dose (SU86.86-pancreas): 1000 mg/kg
- toxicity in the treated mice ([7]; 1500 mg/kg and 2000 mg/kg orally, non-tumor-bearing mice): no noticeable toxicity
- dose mice could tolerate ([7]; oral, implied from no significant body-weight loss): higher than 2000 mg/kg
- % Crystalline CZ48 Hydrate Absorptions, Colon, Ave ([8]; colon, average of 4 mice): −19.46%
- % Crystalline CZ48 Hydrate Absorptions, Colon ([8]; colon, individual mice No. 1-4, HBSS pH 7.4, 37° C., 0.191 mL/min, listed as Crystalline CZ48 Hydrate, hydrate): 8.04% and −35.17% and −73.24% and 6.82%
- % Crystalline CZ48 Hydrate Absorptions, SI, Ave ([8]; small intestine, average of 4 mice): 22.23%
- % Crystalline CZ48 Hydrate Absorptions, SI ([8]; small intestine, individual mice No. 1-4, HBSS pH 7.4, 37° C., 0.191 mL/min, listed as Crystalline CZ48 Hydrate, hydrate): 11.49% and 16.51% and 9.34% and 45.85%
- Effective dose (SW48 colon tumor line): 100 mg/kg
- Effective dose (WAR breast tumor line): 200 mg/kg
- Effective dose (BRO melanoma line): 100 mg/kg
- AUC(0-t) ([2]; nude, mouse, in vivo, po, 2000 mg/kg): 1930 ± 114 ng·h/mL
- Effective dose [9]: 300 mg/kg
- Effective dose (HT29 colon tumor line): 50 mg/kg
- Response Positive (inhibition of growth bigger than 50%), lines responding/tested (human Colon tumor lines): 4/4
- Effective dose (PANC1-pancreas): 1000 mg/kg
- Response Positive (inhibition of growth bigger than 50%), lines responding/tested (human Lung tumor lines): 2/2
- Response Positive (inhibition of growth bigger than 50%), lines responding/tested (human Melanoma lines): 2/2
